In US8669256B2, “Substituted thieno[2,3-b]pyrazine compounds as modulators of B-Raf kinase activity” (Merck Sharp & Dohme B.V., priority 2010, dated 2014):
Where two headings read alike, the source gives them in different places.

Columns and labels:
[1] = molecular target: T1, GST-tagged human recombinant active B-Raf (Δ1-415) (Homo sapiens, UniProt P15056); assay: B-Raf kinase activity, IMAP coupled assay (B-Raf/MEK1/ERK2, fluorescence polarization); assay type: biochemical; conditions: bounds also given as pIC50 (>6, >7, >8); 60 min pre-incubation with compound, ATP 50 μM; read-out: IC50, B-Raf IMAP assay
T1 construct: GST; purchased Upstate/Millipore
T1 sequence (P15056 416-766, stated change not applied): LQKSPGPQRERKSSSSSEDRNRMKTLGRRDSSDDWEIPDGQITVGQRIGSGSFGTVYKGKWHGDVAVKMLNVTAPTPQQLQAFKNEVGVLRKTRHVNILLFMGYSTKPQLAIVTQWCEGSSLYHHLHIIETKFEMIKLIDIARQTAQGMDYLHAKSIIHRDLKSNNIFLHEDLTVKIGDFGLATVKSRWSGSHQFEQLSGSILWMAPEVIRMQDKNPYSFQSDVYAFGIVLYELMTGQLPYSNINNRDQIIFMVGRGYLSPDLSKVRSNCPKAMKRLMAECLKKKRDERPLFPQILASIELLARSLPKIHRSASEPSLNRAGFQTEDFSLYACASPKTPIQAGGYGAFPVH
Summary of the method: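 Coupled cascade: GST-B-Raf (Δ1-415; 0.2 U/ml) pre-incubated with compound (1% DMSO) 60 min at room temperature, then unactive MEK1 (64 ng/ml), unactive ERK2 (600 ng/ml), 50 nM fluorescein-Erktide and 50 μM ATP added for 60 min at 30 °C, pH 7.2 Tris buffer. Phosphopeptide captured on IMAP beads (60 min); fluorescence polarization read.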

[2] = system: phosphorylation of ERK1/2 in A375 cells containing mutant B-Raf (V600E); assay: Phospho-ERK FACE assay in A375 (B-Raf mutated) melanoma cell line; assay type: cell-based; conditions: Homo sapiens, read-out: IC50, A375 melanoma phospho-ERK assay
Description: The B-Raf activity can also be determined in a B-Raf mutated melanoma cell line, such as the A375 cell line. Inhibition of phosphorylation of ERK1/2 can be measured using a Fast Activated Cell-based ELISA (FACE) from Active Motif (Carlsbad, U.S.A., CA). E.g. A375 cells, which are cells containing a mutant form of B-Raf (V600E) and thus contain high levels of phosphorylated ERK, can be incubated with Raf inhibitors. Then cells can be incubated with anti-phospho-ERK antibody and subsequently with horse radish peroxidase (HRP)-labeled secondary antibody. Finally, chemiluminescence reagents can be added, which react with HRP, to give a luminescence signal.
Determination of B-Raf Activity Using a A375 (B-Raf mutated) Melanoma Cell Line (Phospho-ERK FACE Assay)
Inhibition of phosphorylation of ERK1/2 was measured using a Fast Activated Cell-based ELISA (FACE) from Active Motif (Carlsbad, U.S.A., CA). Briefly, A375 cells, which are cells containing a mutant form of B-Raf (V600E) and thus contain high levels of phosphorylated ERK, were incubated for 2 hours with Raf inhibitors. Then, cells were fixed with paraformaldehyde, washed and following quenching and blocking, incubated with anti-phospho-ERK antibody, and as a control, on a separate plate, with ERK antibody. After washing and removal of the primary antibodies, the fixed cells were incubated with horse radish peroxidase (HRP)-labeled secondary antibody. Finally, chemiluminescence reagents were added, which react with HRP, to give a luminescence signal.
Detailed protocol: A375 cells were cultured in DMEM/F12 (Dulbecco's Modified Eagle Medium Nutrient Mixture F-12) (Invitrogen), supplemented with 10% fetal bovine serum (FBS) (Biowhittaker), 100 U/ml penicillin G and 100 μg/ml streptomycin (Gibco). For the phospho ERK assay, cells were seeded at a density of 15,000 cells/well in 100 μl culture medium in 96-well plates and incubated in a humidified atmosphere at 5% CO2 and 37° C. After 24 hours, cells were washed with DMEM/F12 supplemented with 0.1% FBS (assay medium 120 μl of assay medium was added and the plates were incubated overnight in a humidified atmosphere at 5% CO2 and 37° C. The next day, the assay medium was removed and compounds diluted in assay medium were added to the cells. Final DMSO concentration in the assay was 1%. After 2 hours incubation, cells were fixed by replacing the assay medium with 100 μl of 4% formaldehyde (Bio-Connect, Huissen, The Netherlands) in PBS. After 20 minutes of incubation at room temperature, cells were washed three times with 200 μl wash buffer (0.1% (vol/vol) Triton X-100 in PBS from the FACE kit) followed by an incubation of 20 minutes with 100 μl quenching buffer, containing 1% (vol/vol) hydrogen peroxide (Thermo Fisher Scientific) and 0.1% (vol/vol) sodium azide (Sigma-Aldrich) in phosphate-buffered saline. Cells were washed two times with wash buffer, incubated for 1 hour with 100 μl antibody blocking buffer from the kit and washed two times again. 40 μl of diluted antibody against phosphorylated ERK1/2 (1:500 from the FACE kit) was added and incubated overnight at 4° C. The phospho-ERK antibody has been raised against a synthetic phospho-peptide corresponding to residues Thr202 and Tyr204 of human ERK1 and Thr185 and Tyr187 of human ERK2. For the detection of total ERK, antibody against ERK1 and ERK2 (1:500 from the FACE kit) was added. The excessive primary antibody was washed out, and 100 μl diluted HRP-conjugated anti-rabbit IgG (1:2000 from the FACE kit) was added and incubated for 1 hour at room temperature. Secondary antibody was removed and cells were washed 3 times with wash buffer and twice with PBS. 50 μl per well of FACE chemiluminescent working solution was added. Chemiluminescence was measured on an Envision Multilabel reader.

[3] = A-375, A375 cells, 2 hours incubation, class between 10 μM and 1 μM (5<pIC50<6)
[4] = A-375, A375 cells, 2 hours incubation, between 1 μM and 100 nM (6<pIC50<7)
[5] = A-375, A375 cells, 2 hours incubation, class given as below 100 nM (pIC50>7)

Structure (SMILES) | IC50 [1] | IC50 [2, 3] | IC50 [2, 4] | IC50 ([2]; A-375, 2 h) | IC50 [2, 5]
Cc1ccc(NC(=O)c2ccc(F)c(C(F)(F)F)c2)cc1NC(=O)c1cc2nccnc2s1 [Example 37, N-(5-(4-fluoro-3-(trifluoromethyl)benzamido)-2-methylphenyl)thieno[2,3-b]pyrazine-6-carboxamide] | < 100 nM | 1000 to 10000 nM |  |  | 
Cc1ccc(NC(=O)c2cccc(C(F)(F)F)c2F)cc1NC(=O)c1cc2nccnc2s1 [Example 38, N-(5-(2-fluoro-3-(trifluoromethyl)benzamido)-2-methylphenyl)thieno[2,3-b]pyrazine-6-carboxamide] | < 100 nM |  | 100 to 1000 nM |  | 
Cc1ccc(NC(=O)c2cc(OC(F)(F)F)ccc2F)cc1NC(=O)c1cc2nccnc2s1 [Example 39, N-(5-(2-fluoro-5-(trifluoromethoxy)benzamido)-2-methylphenyl)thieno[2,3-b]pyrazine-6-carboxamide] | < 100 nM | 1000 to 10000 nM |  |  | 
Cc1ccc(NC(=O)Nc2cccc(C(C)(C)C#N)c2)cc1NC(=O)c1cc2nccnc2s1 [Example 40, N-(5-(3-(3-(2-cyanopropan-2-yl)phenyl)ureido)-2-methylphenyl)thieno[2,3-b]pyrazine-6-carboxamide] | < 100 nM | 1000 to 10000 nM |  |  | 
Cc1ccc(NC(=O)c2cccc(C(C)(C)C#N)c2)cc1NC(=O)c1sc2nccnc2c1Br [Example 41, 7-bromo-N-(5-(3-(2-cyanopropan-2-yl)benzamido)-2-methylphenyl)thieno[2,3-b]pyrazine-6-carboxamide] | < 10 nM |  |  | 100 to 1000 nM | 
Cc1ccc(NC(=O)c2cccc(C(C)(C)C#N)c2)cc1NC(=O)c1sc2nccnc2c1C [Example 42, N-(5-(3-(2-cyanopropan-2-yl)benzamido)-2-methylphenyl)-7-methylthieno[2,3-b]pyrazine-6-carboxamide] | < 10 nM |  | 100 to 1000 nM |  | 
Cc1ccc(NC(=O)c2cccc(C(C)(C)C#N)c2)cc1NC(=O)c1sc2nccnc2c1C#N [Example 43, 7-cyano-N-(5-(3-(2-cyanopropan-2-yl)benzamido)-2-methylphenyl)thieno[2,3-b]pyrazine-6-carboxamide] | < 10 nM |  | 100 to 1000 nM |  | 
C=Cc1c(C(=O)Nc2cc(NC(=O)c3cccc(C(C)(C)C#N)c3)ccc2C)sc2nccnc12 [Example 44, N-(5-(3-(2-cyanopropan-2-yl)benzamido)-2-methylphenyl)-7-vinylthieno[2,3-b]pyrazine-6-carboxamide] | < 10 nM |  | 100 to 1000 nM |  | 
CCNc1c(C(=O)Nc2cc(NC(=O)c3cccc(C(C)(C)C#N)c3)ccc2C)sc2nccnc12 [Example 46, N-(5-(3-(2-cyanopropan-2-yl)benzamido)-2-methylphenyl)-7-(ethylamino)thieno[2,3-b]pyrazine-6-carboxamide] | < 100 nM |  |  |  | < 100 nM
Cc1ccc(NC(=O)c2cccc(C(C)(C)C#N)c2)cc1NC(=O)c1sc2ncc(C#N)nc2c1N [Example 49, 7-amino-2-cyano-N-(5-(3-(2-cyanopropan-2-yl)benzamido)-2-methylphenyl)thieno[2,3-b]pyrazine-6-carboxamide] | < 100 nM |  | 100 to 1000 nM |  | 
Cc1ccc(NC(=O)c2cccc(C(C)(C)C#N)c2)cc1NC(=O)c1sc2ncc(-c3ccco3)nc2c1N [Example 50, 7-amino-N-(5-(3-(2-cyanopropan-2-yl)benzamido)-2-methylphenyl)-2-(furan-2-yl)thieno[2,3-b]pyrazine-6-carboxamide] | < 100 nM |  |  |  | < 100 nM
CC(C)(C#N)c1cccc(C(=O)Nc2ccc(Br)c(NC(=O)c3cc4nccnc4s3)c2)c1 [Example 51, N-(2-bromo-5-(3-(2-cyanopropan-2-yl)benzamido)phenyl)thieno[2,3-b]pyrazine-6-carboxamide] | < 100 nM |  | 100 to 1000 nM |  | 
Cc1ccc(NC(=O)c2cccc(C(F)(F)F)c2)cc1NC(=O)c1cc2nc(-c3cccnc3)cnc2s1 [Example 53, N-(2-methyl-5-(3-(trifluoromethyl)benzamido)phenyl)-2-(pyridin-3-yl)thieno[2,3-b]pyrazine-6-carboxamide] | < 100 nM |  | 100 to 1000 nM |  | 
Cc1ccc(NC(=O)c2cccc(C(F)(F)F)c2)cc1NC(=O)c1sc2nccnc2c1N [Example 54, 7-amino-N-(2-methyl-5-(3-(trifluoromethyl)benzamido)phenyl)thieno[2,3-b]pyrazine-6-carboxamide] | < 10 nM |  |  |  | < 100 nM
CC(C)(C#N)c1cccc(C(=O)Nc2cc(NC(=O)c3cc4nccnc4s3)c(F)cc2F)c1 [Example 55, N-(5-(3-(2-cyanopropan-2-yl)benzamido)-2,4-difluorophenyl)thieno[2,3-b]pyrazine-6-carboxamide] | < 100 nM | 1000 to 10000 nM |  |  | 
Cc1ccc(NC(=O)c2cccc(C(C)(C)C#N)c2)cc1NC(=O)c1cc2ncc(NCCN(C)C)nc2s1 [Example 61, N-(5-(3-(2-cyanopropan-2-yl)benzamido)-2-methylphenyl)-3-(2-(dimethylamino)ethylamino)thieno[2,3-b]pyrazine-6-carboxamide] | < 10 nM |  | 100 to 1000 nM |  | 
Cc1ccc(NC(=O)c2cccc(C(C)(C)C#N)c2)cc1NC(=O)c1cc2ncc(NCCN3CCOCC3)nc2s1 [Example 63, N-(5-(3-(2-cyanopropan-2-yl)benzamido)-2-methylphenyl)-3-(2-morpholinoethylamino)thieno[2,3-b]pyrazine-6-carboxamide] | < 10 nM |  | 100 to 1000 nM |  | 
COCCNc1cnc2cc(C(=O)Nc3cc(NC(=O)c4cccc(C(C)(C)C#N)c4)ccc3C)sc2n1 [Example 65, N-(5-(3-(2-cyanopropan-2-yl)benzamido)-2-methylphenyl)-3-(2-methoxyethylamino)thieno[2,3-b]pyrazine-6-carboxamide] | < 10 nM |  | 100 to 1000 nM |  | 
Cc1ccc(NC(=O)c2cccc(C(C)(C)C#N)c2)cc1NC(=O)c1cc2ncc(NCCO)nc2s1 [Example 66, N-(5-(3-(2-cyanopropan-2-yl)benzamido)-2-methylphenyl)-3-(2-hydroxyethylamino)thieno[2,3-b]pyrazine-6-carboxamide] | < 10 nM | 1000 to 10000 nM |  |  | 
CCNc1cnc2cc(C(=O)Nc3cc(NC(=O)c4cccc(C(C)(C)C#N)c4)ccc3C)sc2n1 [Example 67, N-(5-(3-(2-cyanopropan-2-yl)benzamido)-2-methylphenyl)-3-(ethylamino)thieno[2,3-b]pyrazine-6-carboxamide] | < 100 nM |  | 100 to 1000 nM |  | 
Cc1ccc(NC(=O)c2cccc(C(C)(C)C#N)c2)cc1NC(=O)c1cc2ncc(-c3cccnc3)nc2s1 [Example 68, N-(5-(3-(2-cyanopropan-2-yl)benzamido)-2-methylphenyl)-3-(pyridin-3-yl)thieno[2,3-b]pyrazine-6-carboxamide] | < 100 nM |  | 100 to 1000 nM |  | 
